Assay results as given in patent US20200254211A1, “STRESS RELIEVING DEVICE FOR VEHICLES” (DENSO CORPORATION, priority 2015, published 2020).

Columns and labels:
[1] = tested on: parasympathetic nerve state (relaxation state) of test subjects; assay: stress substitution experiment (FIG. 6); assay type: in vivo, human; conditions: average of six test subjects, cedrol in diethylene glycol monobutyl ether
Excerpt: In this experiment, instead of actual driving, a stress substitution experiment is applied to confirm effects. The stress substitution experiment may be, for example, repetitively performing simple calculations, handling heavy objects with difficult posture, etc.
In the above stress substitution experiment, with respect to an initial state, the parasympathetic nerve state (relaxation state) of the test subjects decreases when stressed. […] In other words, it is possible for a mixture solvent of cedrol is change an irritated state to a relaxed state.

humans = conditions: general statement; cited from earlier work
parasympathetic nerves = assay: parasympathetic nerve state with respect to cedrol concentration (FIG. 4); assay type: in vivo, human
Method: Then, once cedrol concentration exceeds 300 μg/m^3, due to excessive relaxation, sleepiness is promoted.

[2] = tested on: α-II waves and θ waves in the brain; assay: human brain waves recorded in an environment where cedrol is volatilized (FIG. 3); assay type: in vivo
Method: Further, from the start of volatilization of cedrol and until cedrol concentration reaches 300 μg/m^3, the activity voltage of α-II waves is greater than that of θ waves, and it is understood that this is suitable for relaxing a person. Further, once cedrol concentration exceeds 300 μg/m^3, the activity voltage of […] is greater than that of α-II waves, and it is understood that this is suitable for promoting sleepiness in a person.

C[C@@H]1CC[C@H]2C(C)(C)[C@H]3C[C@@]12CC[C@@]3(C)O [cedrol]
parasympathetic nerve state (relaxation state) after release of mixture solvent vapor to stressed test subjects [1]: increases to above the initial state
physiological effects in humans (humans): lowering heat rate, respiratory rate, blood pressure, etc. in humans, and also increasing α-II waves in the brain
lower limit of cedrol for exhibiting a relaxation effect (parasympathetic nerves; volatilization amount in vehicle cabin): 0.5 μg/m^3
cedrol concentration at which sleepiness is promoted due to excessive relaxation (parasympathetic nerves; volatilized cedrol in air): exceeds 300 μg/m^3
parasympathetic nerve state with increasing cedrol concentration (parasympathetic nerves; volatilized cedrol in air): parasympathetic nerves become significant
cedrol concentration at which activity voltage of α-II waves is greater than that of θ waves (suitable for relaxing) ([2]; from the start of volatilization): ≤ 300 μg/m^3
activity voltages of α-II waves (relaxation) and θ waves (falling asleep) ([2]; human brain waves, volatilized cedrol, with rising concentration): both increase as the concentration of cedrol increases
cedrol concentration at which activity voltage of θ waves is greater than that of α-II waves (promoting sleepiness) ([2]; volatilized cedrol in air): exceeds 300 μg/m^3
